Laboratory results from a melting point compilation (Tetko et al.; mined from patent text by program, amines drawn as free bases though some values may be those of a salt).

Compound	melting point [°C]
CCCCC(CC)Nc1cc(C)nc(Cl)c1[N+](=O)[O-] (stereo not drawn)	48 to 49
N#CC(C(=O)c1ccc(Cl)cc1)=C1CCCN1	156 to 158
OC(CNCCCn1cnc2ccccc21)c1ccc(OCc2ccccc2)cc1 (stereo not drawn)	83 to 85
CCOC(=O)CNC(=O)Oc1cccc2ccc(C)nc12	118 to 120
CN(C)CCCC(=O)Nc1nc2c(s1)-c1c(cnn1-c1ccccc1)C2	218 to 222
O=C1CC=C(c2c[nH]c3ccc([N+](=O)[O-])cc23)CC1	210 to 212
COc1ccc(OC)c2c(=O)c3c(Cl)ccc([N+](=O)[O-])c3sc12	222 to 228
CCN1CCCC(NC(=O)c2ccccc2Nc2ccnc3c(C(F)(F)F)cccc23)C1 (stereo not drawn)	212 to 213
Cc1c(F)cccc1Cc1c(-c2ccccc2)c2ccccn2c1C(=O)N1CCN(C(=O)OC(C)(C)C)CC1	263
N#Cc1ccc(N2C(=O)NC3(CCSCC3)C2=O)cc1C(F)(F)F	209 to 210
C/C=C/c1ccc2nc(Cl)c(S(N)(=O)=O)n2n1	225 to 229
Cc1cc(=O)oc2nn(Cc3cccnc3)c(C)c12	191 to 193
O=C1CCC(N2C(=O)c3ccc(CNC(=O)Nc4ccccc4)cc3C2=O)C(=O)N1 (stereo not drawn)	288 to 290
Cn1cc(-c2ccccc2)c(=O)c(-c2cccc(CC3CCCCC3)c2)c1	147 to 148
CCOC(=O)[C@H](C)NC(=O)CCc1cc(Cl)ccc1C(=O)CCCNC(C)=O	106
O=C(CCc1ccc(NC(=O)C(F)(F)F)c([N+](=O)[O-])c1)Nc1ccc(Cl)cc1Cl	193 to 194
O=S(=O)(CC1CCCCN1S(=O)(=O)c1ccccc1)c1ccc(Cl)cc1 (stereo not drawn)	129 to 131
NS(=O)(=O)c1nc(-c2ccc([N+](=O)[O-])cc2)c[nH]1	227 to 229
CC(=O)n1ncc2c(OCc3ccccc3)cc(C)cc21	91 to 93
O=[N+]([O-])c1cnc2ccc(Oc3ccc(CNc4ncncc4Cl)cc3)nn12	185
COc1cc(-c2cnc3[nH]cc(I)c3n2)cc(OC)c1OC	230 to 232
CCCC(C)c1nn(-c2ccc(C(F)(F)F)cn2)cc1CCCOc1c(C)cccc1CC(=O)O (stereo not drawn)	147 to 148
COc1ccc2cc(N(C(C)=O)c3ccc(O)cc3)ccc2c1	187 to 188
Cc1ccccc1C1SCCCN1C(=S)Nc1cccc(Cl)c1 (stereo not drawn)	134 to 136
CC(=O)OCCCCn1c(=O)sc2c(=O)[nH]c(N)nc21	189 to 190
C=C1CC2(CN3CCC2CC3)SC1C (stereo not drawn)	164 to 168
COC(=O)CSc1cc(C)ccc1[N+](=O)[O-]	74 to 75

Compound	melting point [°C]
Nc1cc(C(=O)O)cc(S(N)(=O)=O)c1Sc1ccccc1	285
CC(=O)Nc1cnc(-c2ccccc2)nc1Cl	179 to 180
Brc1ccc2c(c1)C(c1ccccn1)=NCc1nnc(Br)n1-2	236 to 238
CN1CCc2c([nH]c(Br)c2Br)C(c2ccccc2)C1 (stereo not drawn)	136 to 137
NNC(=O)C[C@H](O)COCc1ccccc1	96.9
CCOC(=O)[C@H]1O[C@@H]1C(=O)N[C@@H](CC(C)C)C(=O)c1ccccc1	118 to 119
CCOC(=O)c1ccc(Cc2ccccc2)cn1	109 to 111
Cc1cc2ncnn2c(N2CCN(C)CC2)n1	95 to 98
Nc1ccn([C@@]2(O)CC=C(P(=O)(O)O)O[C@@H]2CO)c(=O)n1	290
COC(=O)COc1ccc(C(=O)CNC=O)cc1	116
CCCCCCCCCCCCCCOc1ccc(O)c(C(=O)OC)c1	49 to 53
CCOC(=O)C1=C(C)NC(N)=C(C(=O)OCC)C1c1ccccc1C (stereo not drawn)	130
O=C1CO[C@@H]2CCCC[C@H]2O1 (relative stereo)	20 to 22
O=c1nc(N2CCC(O)CC2)sc2ncccc12	206 to 207
CC(=O)Oc1c(C)c(C)c2c(c1C)C(c1ccc(F)cc1)C(C)(C)O2 (stereo not drawn)	86 to 87
Clc1ncccc1OCC1CO1 (stereo not drawn)	132
COC(=O)C(C)Oc1cccc(C=O)c1 (stereo not drawn)	50.7
CC(C)S(=O)(=O)c1ccc2c(c1)nc(CC1CCCC1)n2CC1CC1	137
OP(O)C(NC(c1ccccc1)c1ccccc1)c1c[nH]c2ccccc12 (stereo not drawn)	154
CC1OC(n2cc(F)c(NC(=O)c3ccc(Cl)cc3)nc2=O)C(O)C1O (stereo not drawn)	142 to 146
CC1CCc2c(c(-c3ccccc3)nc(=O)n2C(C)C)C1 (stereo not drawn)	175 to 177
Cc1c(C(F)(F)F)nc[nH]c1=O	175 to 176
c1cncc(CC2(Cc3cccnc3)c3ccccc3-c3ccccc32)c1	137 to 138
O=C(O)CC=CC12CC(c3ccccc31)c1ccccc12	166 to 167
COC(=O)c1cc(OC)c(OC)c([N+](=O)[O-])c1	75 to 76
CC(=O)NC[C@H]1CN(c2ccc(-c3nc(Cn4cccn4)cs3)c(F)c2)C(=O)O1	178 to 180
